In US20130108563A1, “COMPOSITIONS COMPRISING AT LEAST ONE AQUEOUS PHASE AND AT LEAST ONE FATTY PHASE WHICH COMPRISES AVERMECTIN COMPOUNDS” (Galderma S.A., priority 2006, published 2013):

How the values were obtained:
[1] = 1-month stability of ivermectin in oily-phase excipients; assay type: physicochemical
Description: (§1) Maximum solubility of ivermectin at T1 hour at ambient temperature (AT) in various oily-phase excipients and 1 month stability at AT and T40° C.

[2] = Maximum solubility of ivermectin in oily-phase excipients; assay type: physicochemical; settings: T1 hour, ambient temperature
Description: as §1

Substance: ivermectin
- 1-month stability at 40° C. ([1]; in Diisopropyl adipate): Stable
- 1-month stability at AT ([1]; in Diisopropyl adipate): Stable
- 1-month stability at 40° C. ([1]; in PPG 15 stearyl ether): Stable
- 1-month stability at AT ([1]; in PPG 15 stearyl ether): Stable
- Maximum solubility of ivermectin % (w/w) ([2]; in C12-C15 alkyl benzoate): 1.6 % (w/w)
- Maximum solubility of ivermectin % (w/w) ([2]; in Diisopropyl adipate): 10.4 % (w/w)
- Maximum solubility of ivermectin % (w/w) ([2]; in Guerbet alcohol): 2.5 % (w/w)
- Maximum solubility of ivermectin % (w/w) ([2]; in PPG 15 stearyl ether): 3.3 % (w/w)
